Biological target: human P2X3 receptor (Homo sapiens (Human), UniProt P56373)
Assay: Evaluation of human P2X3 receptor inhibitory activity (Fluo-3 calcium fluorescence, FDSS 3000, ATP stimulation);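 note: stimulus was 50 nM ATP with fluorescence followed for 3 min, and the response per well was peak post-ATP fluorescence divided by the reading at measurement start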
Assay type: cell-based
[1] = C6BU-1 cells stably expressing human P2X3 receptor, Fluo-3 fluorescence, FDSS 3000
[2] = human P2X3 receptor, Test Example 1
[3] = C6BU-1 cells stably expressing human P2X3 receptor

human P2X3 receptor, sequence (P56373 whole entry): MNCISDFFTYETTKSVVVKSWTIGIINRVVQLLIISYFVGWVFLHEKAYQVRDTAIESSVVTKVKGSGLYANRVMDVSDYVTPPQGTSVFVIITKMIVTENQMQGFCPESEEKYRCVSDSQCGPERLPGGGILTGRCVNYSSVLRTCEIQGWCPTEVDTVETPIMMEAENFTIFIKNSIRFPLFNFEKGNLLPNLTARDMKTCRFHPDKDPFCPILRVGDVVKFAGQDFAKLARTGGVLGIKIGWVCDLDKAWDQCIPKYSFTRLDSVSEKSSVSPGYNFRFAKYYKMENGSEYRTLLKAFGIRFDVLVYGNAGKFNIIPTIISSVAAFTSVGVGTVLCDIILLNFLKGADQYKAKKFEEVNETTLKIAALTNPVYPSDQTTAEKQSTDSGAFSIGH

SMILES | IC50 [1] [nM] | IC50 [2] [nM] | further results
CCc1nc2ccc(/N=c3\[nH]c(=O)n(CC(C)(C)C(=O)OC)c(=O)n3Cc3ccc(Cl)cc3)cc2s1 [Compound I-1572] | 5 |  | 
CCn1c(=O)[nH]/c(=N\c2ccc(Oc3ccc(C(=O)OC)nc3)cc2)n(Cc2ccc(Cl)cn2)c1=O [Compound I-2275] |  | 10 | 
COC(=O)[C@@H](C)Cn1c(=O)[nH]/c(=N\c2ccc(OCC(F)F)c(C)c2)n(Cc2ccc(Cl)cc2)c1=O [Compound I-0738] |  |  | IC50 [3]: 19 nM
C[C@@H](Cn1c(=O)[nH]/c(=N\c2ccc(C=C3CCCC3)cc2)n(Cc2ccc(Cl)cc2)c1=O)C(=O)O [Compound I-1099] | 70 |  | 
C[C@@H](Cn1c(=O)[nH]/c(=N\c2cnc(OC3CCC3)c(Cl)c2)n(Cc2ccc(Cl)cc2)c1=O)C(=O)O [Compound I-1411] |  |  | IC50 [3]: 58 nM
COC(=O)C(C)(C)Cn1c(=O)[nH]/c(=N\c2ccc(OC(C)C)c(OC)c2)n(Cc2ccc(Cl)cc2)c1=O [Compound I-1273] |  |  | IC50 [3]: 7 nM
CCn1c(=O)[nH]/c(=N\c2ccc(Oc3ccc(C#N)cn3)cc2)n(Cc2ccc(C)cc2)c1=O [Compound I-2395] |  | 4 | 
CCn1c(=O)[nH]/c(=N\c2ccc(Oc3ccc(CO)nc3)cc2)n(Cc2ccc(Cl)cc2)c1=O [Compound I-2114] |  |  | IC50 [3]: 7 nM
Cc1ccc(Cn2c(=O)n([C@@H](C)[C@@H](C)C(=O)O)c(=O)[nH]/c2=N\c2ccc(OCC(C)C)cc2)cc1 [Compound I-1387] |  |  | IC50 [3]: 44 nM
CCCOc1ccc(/N=c2\[nH]c(=O)n(C[C@H](CC)C(=O)O)c(=O)n2Cc2ccc(C)cc2)cc1 [Compound I-0885] |  | 87 | 
CCOC(=O)C1(Cn2c(=O)[nH]/c(=N\c3ccc4nc(C)sc4c3)n(Cc3ccc(C)cc3)c2=O)CC1 [Compound I-1545] |  | 3 | 
Cc1cc(/N=c2\[nH]c(=O)n([C@H]3CC[C@H](C(=O)O)CC3)c(=O)n2Cc2ccc(Cl)cc2)ccc1OC(C)C [Compound I-0850] |  | 62 | 
O=C(NCC(F)(F)F)c1cc(Oc2ccc(/N=c3\[nH]c(=O)[nH]c(=O)n3Cc3ccc(Cl)cc3)cc2)ccn1 [Compound I-1898] | 11 |  | 
O=c1[nH]/c(=N\c2ccc(OCC3CC3)cc2)n(Cc2ccc(Cl)cc2)c(=O)n1C[C@H](O)CO [Compound I-1855] | 21 |  | 
CC(C)Oc1ccc(/N=c2\[nH]c(=O)n(C(C)(C)C(=O)NCCO)c(=O)n2Cc2ccc(Cl)cc2)cc1Cl [Compound I-0705] |  |  | IC50 [3]: 11 nM
CNC(=O)Cn1c(=O)[nH]/c(=N\c2ccc(Oc3nc(C)ns3)cc2)n(Cc2ccc(Cl)cc2)c1=O [Compound I-2581] |  | 5 | 
CSc1cccc(/N=c2\[nH]c(=O)n(C[C@H](C)C(=O)O)c(=O)n2Cc2ccc(C)cc2)c1 [Compound I-1154] | 131 |  | 
CCOC(=O)OC(=O)c1ccc(Oc2ccc(/N=c3\[nH]c(=O)n(CC)c(=O)n3Cc3ccc(C)cc3)cc2)cc1 [Compound I-2068] |  |  | IC50 [3]: 16 nM
CCCCCOc1ccc(/N=c2\[nH]c(=O)n(CCC(=O)O)c(=O)n2Cc2ccc(C)cc2)cc1 [Compound I-1072] | 252 |  | 
COC(=O)[C@@H](C)Cn1c(=O)[nH]/c(=N\c2ccc3oc(C)c(C)c3c2)n(Cc2ccc(Cl)cc2)c1=O [Compound I-1650] | 9 |  | 
CCCCOc1ccc(/N=c2\[nH]c(=O)n(CC3(C(=O)OCC)CC3)c(=O)n2Cc2ccc(Cl)cc2)cc1 [Compound I-1005] | 31 |  | 

SMILES | IC50 [1] [nM] | IC50 [2] [nM] | further results
Cc1cc(/N=c2\[nH]c(=O)n(C[C@H](C)C(=O)O)c(=O)n2Cc2ccc(Cl)cc2)ccc1OCC(F)F [Compound I-0741] |  |  | IC50 [3]: 50 nM
CC(C)Oc1ccc(/N=c2\[nH]c(=O)n(CC(=O)NCCC3CCOCC3)c(=O)n2Cc2ccc(Cl)cc2)cc1Cl [Compound I-0666] |  |  | IC50 [3]: 8 nM
COC(=O)[C@@H](C)Cn1c(=O)[nH]/c(=N\c2cccc(C(F)(F)F)c2)n(Cc2ccc(Cl)cc2)c1=O [Compound I-0622] |  |  | IC50 [3]: 30 nM
O=c1[nH]/c(=N\c2ccc(Oc3cccc(F)n3)cc2)n(Cc2ccc(Cl)cc2)c(=O)n1C[C@@H](O)CO [Compound I-2525] |  | 10 | 
CC(CO)(CO)Cn1c(=O)[nH]/c(=N\c2ccc(Oc3ccsn3)cc2)n(Cc2ccc(Cl)cc2)c1=O [Compound I-2531] |  | 4 | 
CCOC(=O)Cn1c(=O)[nH]/c(=N\c2ccc(Oc3cnsn3)cc2)n(Cc2ccc(Cl)cc2)c1=O [Compound I-2629] |  | 6 | 
O=c1[nH]/c(=N\c2ccc(Oc3nccs3)cc2)n(Cc2ccc(Cl)cc2)c(=O)n1C[C@H](O)CO [Compound I-2294] |  | 5 | 
CC(C)Oc1ccc(/N=c2\ncn(C(C)C)c(=O)n2Cc2ccc(Cl)cc2)cc1 [Compound I-2276, (E)-3-(4-chlorobenzyl)-4-(4-isopropoxyphenylimino)-1-isopropyl-3,4-dihydro-1,3,5-triazine-2(1H)-one] |  | 778 | 
CCOc1c(Cl)cc(/N=c2\[nH]c(=O)n(C[C@H](C)C(=O)OC)c(=O)n2Cc2ccc(C)cc2)cc1Cl [Compound I-1499] |  | 19 | 
CCn1c(SC)n/c(=N\c2ccc(Oc3cncc(C(=O)OC)c3)cc2)n(Cc2ccc(Cl)cc2)c1=O [Compound I-2264, 1-(4-chlorobenzyl)-3-ethyl-4-methylthio-6-[4-(5-methoxycarbonyl-3-pyridyloxy)phenylimino]-1,3,5-triazine-2-(1H)-one] |  | 558 | 
CCCOc1ccc(/N=c2\[nH]c(=O)n(CC3(C(=O)OCC)CC3)c(=O)n2Cc2ccc(Cl)cc2)cc1 [Compound I-0919] | 14 |  | 
CCn1c(=O)[nH]/c(=N\c2ccc(Oc3cccc(C(=O)O)n3)cc2)n(Cc2ccc(Cl)cn2)c1=O [Compound I-2239] |  | 49 | 
COC(=O)[C@@H](C)Cn1c(=O)[nH]/c(=N\c2ccc(OC(C)C)c(Cl)c2)n(Cc2ccc(C)cc2)c1=O [Compound I-0593] |  |  | IC50 [3]: 4 nM
CNC(=O)CCCn1c(=O)[nH]/c(=N\c2ccc(OC(C)C)c(C)c2)n(Cc2ccc(Cl)cc2)c1=O [Compound I-0786] |  |  | IC50 [3]: 15 nM
CC(CO)(CO)Cn1c(=O)[nH]/c(=N\c2ccc(Oc3ccon3)cc2)n(Cc2ccc(F)cc2)c1=O [Compound I-2399] |  | 20 | 
Cc1ccc(Cn2c(=O)n(CC3(C(=O)O)COC3)c(=O)[nH]/c2=N\c2ccc(CC(C)C)c(Cl)c2)cc1 [Compound I-1496] |  | 9 | 
Cc1ccc(Cn2c(=O)n([C@@H](C)[C@@H](C)C(=O)O)c(=O)[nH]/c2=N\c2ccc(OCC3CC3)c(Cl)c2)cc1 [Compound I-0975] | 43 |  | 
CCOC(=O)CCCn1c(=O)[nH]/c(=N\c2ccc3nc(CC)sc3c2)n(Cc2ccc(C)cc2)c1=O [Compound I-1629] | 4 |  | 
CCOC(=O)C1(Cn2c(=O)[nH]/c(=N\c3ccc(OC(C)C)cc3)n(Cc3ccc(Cl)cc3)c2=O)CC1 [Compound I-0987] | 15 |  | 
CCOC(=O)CN1CC(n2c(=O)[nH]/c(=N\c3ccc(OC(C)C)c(C)c3)n(Cc3ccc(Cl)cc3)c2=O)C1 [Compound I-1741] | 55 |  | 
COc1ccc(Oc2ccc(/N=c3\[nH]c(=O)n(C[C@H](C)C(=O)O)c(=O)n3Cc3ccc(C)cc3)cc2)cn1 [Compound I-1534] |  | 5 | 

SMILES | IC50 [1] [nM] | IC50 [2] [nM] | further results
Cc1ccc(Cn2c(=O)n(C)c(=O)[nH]/c2=N\c2ccc(Oc3cncc(C(=O)O)c3)cc2)cc1 [Compound I-2121] |  |  | IC50 [3]: 21 nM
COC(=O)[C@@H](C)Cn1c(=O)[nH]/c(=N\c2ccc(OC3CCCC3)cc2)n(Cc2ccc(C)cc2)c1=O [Compound I-1186] | 33 |  | 
O=c1[nH]/c(=N\c2ccc(Oc3ncns3)cc2)n(Cc2ccc(Cl)cc2)c(=O)n1C[C@H](O)CO [Compound I-2519] |  | 4 | 
CCOC(=O)C1CCC(n2c(=O)[nH]/c(=N\c3ccc(OC(C)C)c(C)c3)n(Cc3ccc(Cl)cc3)c2=O)CC1 (centres unmarked) [Compound I-0718] |  |  | IC50 [3]: 93 nM
Cc1ccc(Cn2c(=O)n(CCC(=O)O)c(=O)[nH]/c2=N\c2ccc(OCC3CC3)cc2)cc1 [Compound I-1148] | 86 |  | 
CCc1nc2ccc(/N=c3\[nH]c(=O)n(CCC(=O)NC)c(=O)n3Cc3ccc(Cl)cc3)cc2s1 [Compound I-1738] | 5 |  | 
COc1ccc(Oc2ccc(/N=c3\[nH]c(=O)n(C[C@H](O)CO)c(=O)n3Cc3ccc(Cl)cc3)cc2)cn1 [Compound I-1734] | 5 |  | 
Cc1ccc(Cn2c(=O)n(CCC(=O)O)c(=O)[nH]/c2=N\c2cccc(C(F)(F)F)c2F)cc1 [Compound I-2086] |  |  | IC50 [3]: 234 nM
CC[C@@H](C)Oc1ccc(/N=c2\[nH]c(=O)n(C[C@H](C)C(=O)OC)c(=O)n2Cc2ccc(C)cc2)cc1 [Compound I-0824] |  | 18 | 
COC(=O)[C@@H](C)Cn1c(=O)[nH]/c(=N\c2ccc(OC)c(C(F)(F)F)c2)n(Cc2ccc(Cl)cc2)c1=O [Compound I-0796] |  |  | IC50 [3]: 386 nM
CC(C)=Cc1ccc(/N=c2\[nH]c(=O)n(C[C@H](C)C(=O)O)c(=O)n2Cc2ccc(Cl)cc2)cc1Cl [Compound I-0959] | 7 |  | 
CC[C@@H](C)Oc1ccc(/N=c2\[nH]c(=O)n(C[C@H](C)C(=O)OC)c(=O)n2Cc2ccc(C)cc2)cc1Cl [Compound I-1015] | 7 |  | 
COC(=O)[C@@H](C)Cn1c(=O)[nH]/c(=N\c2ccc(OC(C)C)c(C#N)c2)n(Cc2ccc(Cl)cc2)c1=O [Compound I-0953] | 42 |  | 
Cc1ccc(Cn2c(=O)n(CCC(=O)O)c(=O)[nH]/c2=N\c2ccc(Oc3cc(C(=O)O)ccn3)cc2)cc1 [Compound I-2671] |  | 36 | 
CC(C)Oc1ccc(/N=c2\[nH]c(=O)n([C@H](C)[C@H](C)C(=O)O)c(=O)n2Cc2ccc(Cl)cc2)cc1F [Compound I-1343] |  |  | IC50 [3]: 35 nM
CC[C@@H](C)Oc1ccc(/N=c2\[nH]c(=O)n(C[C@H](C)C(=O)O)c(=O)n2Cc2ccc(C)cc2)cc1 [Compound I-0854] |  | 32 | 
O=c1[nH]/c(=N\c2ccc(Oc3ccsn3)cc2)n(Cc2ccc(Cl)cc2)c(=O)n1CC(O)CO (centres unmarked) [Compound I-2514] |  | 11 | 
Cc1ccc(Cn2c(=O)n(C[C@H](O)CO)c(=O)[nH]/c2=N\c2ccc(Oc3ccon3)cc2)cc1 [Compound I-2510] |  | 10 | 
Cc1cc(/N=c2\[nH]c(=O)n(Cc3ccc[nH]c3=O)c(=O)n2Cc2ccc(Cl)cc2)ccc1OC(C)C [Compound I-0725] |  |  | IC50 [3]: 14 nM
COC(=O)[C@H](C)n1c(=O)[nH]/c(=N\c2ccc(Oc3ccon3)cc2)n(Cc2ccc(Cl)cc2)c1=O [Compound I-2459] |  | 7 | 
